Assay results from patent US6448405B1, “Steroid receptor modulator compounds and methods” (Ligand Pharmaceuticals Incorporated, priority 1994, dated 2002).
Like-named read-outs stand apart in the source and are kept apart here.

Experiments:
PR, AR, ER, GR and MR = experiment: cis-trans or co-transfection assay, steroid receptor panel (cross-reactivity); format: cell-based, human; details: as seen in the Tables
[1] = tested on: uterine wet weight in ovariectomized Sprague-Dawely rats; experiment: Uterine wet weight assay (PR agonists); format: in vivo, rat; details: MPA and Compound 210 at 0.3, 1.0 and 3.0 mg/rat; Compound 163 at 3 mg/rat
From the text: The effectiveness of selected compounds of the present invention as PR agonists was investigated in the well recognized uterine wet weight assay, as described in G. J. Marcus, “Mitosis in the rat uterus during the estrous cycle, early pregnancy and early pseudopregnancy”, 10 Biol. Reprod., 447 (1974), S. […] J. Obstet. […] I. Dorfman, “Estrogens” (Ch. 2) and “Antiestrogens” (Ch. 3). in Methods in Hormone Research, ed. R. I. Dorfman, Academic Press, New York, New York, pp101-130 (1969), the disclosures of which are herein incorporated by reference. Four to five week old, ovariectomized, Sprague-Dawely rats (Harlan-Sprague-Dawely, Indianapolis, Ind.) were obtained 1 week after surgery and allowed to acclimate for an additional week after shipment. […] Louis, Mo.) a synthetic estrogen agonist, were fully dissolved in purified sesame oil (Croda, Parsippany, N.J.). […] Additional control groups of rats were administered estrone or vehicle (i.e. sesame oil) alone. Animals were sacrificed on the fourth day of the experiment.

human PR-B = molecular target: T1, human PR-B (Homo sapiens, UniProt P06401); experiment: Co-transfection assay, PR agonist and antagonist activity, CV-1 cells; format: cell-based; details: for IC50: read-out: PR Antagonist CV-1 Cells Potency;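 for all read-outs here: luciferase reporter driven by a hormone response element, co-transfected with human PR-B into CV-1 monkey kidney cells, agonists raise and antagonists lower the reporter signal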
T1 construct: expressed in transfected cells; host or cells: CV-1 cells (African green monkey kidney fibroblasts), transient transfection
T1 sequence (P06401 1-933): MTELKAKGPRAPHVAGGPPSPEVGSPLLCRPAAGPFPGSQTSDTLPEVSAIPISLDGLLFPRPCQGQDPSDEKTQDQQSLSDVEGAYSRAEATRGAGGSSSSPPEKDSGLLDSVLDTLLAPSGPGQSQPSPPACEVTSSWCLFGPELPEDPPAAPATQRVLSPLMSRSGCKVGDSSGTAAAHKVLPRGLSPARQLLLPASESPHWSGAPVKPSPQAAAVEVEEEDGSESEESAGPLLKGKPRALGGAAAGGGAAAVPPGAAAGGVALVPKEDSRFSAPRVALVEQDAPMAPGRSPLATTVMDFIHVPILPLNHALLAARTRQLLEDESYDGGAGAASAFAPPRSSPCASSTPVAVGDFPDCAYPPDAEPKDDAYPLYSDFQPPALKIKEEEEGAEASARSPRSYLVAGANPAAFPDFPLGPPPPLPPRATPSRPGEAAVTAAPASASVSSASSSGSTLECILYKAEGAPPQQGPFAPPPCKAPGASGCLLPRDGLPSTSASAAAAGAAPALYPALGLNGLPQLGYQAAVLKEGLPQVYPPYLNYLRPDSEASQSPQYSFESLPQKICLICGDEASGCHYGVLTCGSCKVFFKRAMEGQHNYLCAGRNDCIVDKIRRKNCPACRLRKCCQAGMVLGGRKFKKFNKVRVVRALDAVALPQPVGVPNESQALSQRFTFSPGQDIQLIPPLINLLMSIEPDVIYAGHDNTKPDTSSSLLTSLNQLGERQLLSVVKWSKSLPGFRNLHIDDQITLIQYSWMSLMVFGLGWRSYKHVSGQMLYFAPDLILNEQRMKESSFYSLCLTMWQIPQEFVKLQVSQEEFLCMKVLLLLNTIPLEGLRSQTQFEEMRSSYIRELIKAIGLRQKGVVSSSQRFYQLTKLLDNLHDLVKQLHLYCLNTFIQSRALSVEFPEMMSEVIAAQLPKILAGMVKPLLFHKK

[2] = molecular target: T2, human progesterone receptor A form (PR-A) (Homo sapiens, UniProt P06401); experiment: PR binding assay, baculovirus extract, [3H] progesterone
T2 sequence (P06401 1-769 isoform P06401-2): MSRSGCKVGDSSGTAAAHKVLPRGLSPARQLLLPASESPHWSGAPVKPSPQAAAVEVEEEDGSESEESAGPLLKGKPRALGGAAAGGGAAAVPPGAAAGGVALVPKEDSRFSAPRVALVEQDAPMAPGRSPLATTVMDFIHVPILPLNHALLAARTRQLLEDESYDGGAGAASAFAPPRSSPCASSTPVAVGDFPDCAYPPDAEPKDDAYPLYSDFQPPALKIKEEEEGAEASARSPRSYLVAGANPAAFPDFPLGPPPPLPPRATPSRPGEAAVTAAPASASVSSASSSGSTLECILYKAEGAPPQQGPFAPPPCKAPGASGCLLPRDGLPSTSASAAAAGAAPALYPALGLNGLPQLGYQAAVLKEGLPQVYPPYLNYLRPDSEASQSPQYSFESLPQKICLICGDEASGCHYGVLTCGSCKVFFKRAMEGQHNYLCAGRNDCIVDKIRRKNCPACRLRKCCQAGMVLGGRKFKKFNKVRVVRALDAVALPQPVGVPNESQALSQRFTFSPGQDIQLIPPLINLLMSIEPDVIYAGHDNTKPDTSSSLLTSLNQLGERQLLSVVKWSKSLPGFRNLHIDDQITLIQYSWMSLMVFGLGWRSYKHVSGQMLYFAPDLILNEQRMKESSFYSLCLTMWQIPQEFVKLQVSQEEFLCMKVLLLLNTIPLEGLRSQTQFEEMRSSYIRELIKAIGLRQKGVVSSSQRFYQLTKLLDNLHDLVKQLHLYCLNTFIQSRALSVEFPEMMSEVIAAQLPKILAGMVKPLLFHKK

human AR = molecular target: T3, human AR (Homo sapiens, UniProt P10275); experiment: AR whole cell binding assay, transfected COS-1 cells, 3H-DHT
T3 construct: expressed in transfected cells; host or cells: COS-1 cells, transient transfection
T3 sequence (P10275 1-920): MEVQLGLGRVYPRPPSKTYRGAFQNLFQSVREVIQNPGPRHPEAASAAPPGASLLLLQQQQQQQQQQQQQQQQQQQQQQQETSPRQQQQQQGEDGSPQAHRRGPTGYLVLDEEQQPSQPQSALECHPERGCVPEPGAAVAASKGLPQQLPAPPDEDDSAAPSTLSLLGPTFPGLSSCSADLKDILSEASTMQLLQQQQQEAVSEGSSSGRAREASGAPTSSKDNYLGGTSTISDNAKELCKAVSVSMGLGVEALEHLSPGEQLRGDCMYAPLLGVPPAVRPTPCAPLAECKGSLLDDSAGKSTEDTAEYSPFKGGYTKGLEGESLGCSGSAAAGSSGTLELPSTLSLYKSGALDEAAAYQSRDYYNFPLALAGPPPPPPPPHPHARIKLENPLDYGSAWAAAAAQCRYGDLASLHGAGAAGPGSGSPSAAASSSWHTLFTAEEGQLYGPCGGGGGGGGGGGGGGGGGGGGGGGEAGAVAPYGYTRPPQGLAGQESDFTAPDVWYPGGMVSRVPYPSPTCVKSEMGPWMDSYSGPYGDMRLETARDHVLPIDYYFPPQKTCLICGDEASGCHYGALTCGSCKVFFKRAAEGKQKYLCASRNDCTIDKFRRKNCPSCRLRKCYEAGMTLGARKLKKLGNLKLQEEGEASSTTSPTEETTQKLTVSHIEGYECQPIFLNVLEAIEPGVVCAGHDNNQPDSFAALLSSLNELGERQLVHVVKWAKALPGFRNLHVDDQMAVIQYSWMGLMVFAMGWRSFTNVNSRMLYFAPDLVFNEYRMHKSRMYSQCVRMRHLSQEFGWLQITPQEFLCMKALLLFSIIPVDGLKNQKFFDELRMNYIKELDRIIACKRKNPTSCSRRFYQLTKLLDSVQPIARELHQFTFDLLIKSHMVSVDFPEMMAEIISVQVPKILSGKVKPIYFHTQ

[3] = molecular target: T4, human androgen receptor (AR) (Homo sapiens, UniProt P10275); experiment: Co-transfection assay, AR agonist and antagonist activity, CV-1 cells (pRShAR); format: cell-based; details: for AR Agonist CV-1 Cells Efficacy (%): relative to DHT; for AR Antagonist CV-1 Cells Efficacy (%): % maximal inhibition
T4 construct: expressed in transfected cells; host or cells: CV-1 cells, transient transfection
T4 sequence (P10275 1-920): T3 sequence (P10275 1-920)

[4] = agonist mode, EC50, read-out: PR Agonist CV-1 Cells Potency
[5] = read-out: AR Agonist CV-1 Cells Potency, agonist mode, EC50
[6] = antagonist mode, DHT at its EC50
[7] = read-out: AR Antagonist CV-1 Cells Potency, Table 2, antagonist mode, IC50

In the case of `CC1=CC(C)(C)Nc2ccc3c(c21)C(c1ccc(Cl)cc1)Oc1ccccc1-3` (racemic) [Compound 163, (R/S)-5-(4-Chlorophenyl)-1,2-dihydro-2,2,4-trimethyl-5H-chromeno[3,4-f]quinoline], the “steroid receptor selectivity profile” value (PR, AR, ER, GR and MR) is reported as “highly selective PR agonists”, the “effect on uterine wet weight when co-administered with estrone” value [1] is reported as “decreased by approximately half” and the EC50 (human PR-B; [4]) is reported as 15 nM. The IC50 (human PR-B) was 3620 nM and the Ki ([2]; read-out: PR Binding Ki) was 1 nM.

`CC1CC(C)(C)Nc2cc3oc(=O)cc(-c4ccoc4)c3cc21` (racemic) [Compound 405, (R/S)-5-(3-Furyl)-1,2,3,4-tetrahydro-2,2,4-trimethyl-8-pyranono[5,6-g]quinoline] showed a Ki (human AR) of 6 nM, an EC50 [3] of over 10000 nM and an IC50 [3] of 77 nM. For the same molecule, the “AR Agonist CV-1 Cells Efficacy (%)” value ([3]; Table 2, agonist mode) was “na (na = not active (i.e. efficacy of <20 and potency of >10,000))”, the “AR Antagonist CV-1 Cells Efficacy (%)” value ([3]; Table 2, antagonist mode) was 89% and the “AR Agonist CV-1 Cells Efficacy (%)” value ([3]; agonist mode) was “na (na = not active (i.e. efficacy of <20 and potency of >10,000))”. The EC50 [3, 5] was over 10000 nM.

In the case of `CCC1CCNc2cc3oc(=O)cc(C(F)(F)F)c3cc21` (racemic) [Compound 414, (R/S)-4-Ethyl-1,2,3,4-tetrahydro-6-trifluoromethyl-8-pyranono[5,6-g]quinoline], the Ki (human AR) is reported as 0.3 nM, the EC50 [3] is reported as 1 nM and the IC50 [3] is reported as over 10000 nM. The “AR Agonist CV-1 Cells Efficacy (%)” value ([3]; Table 2, agonist mode) was 118%, the “AR Antagonist CV-1 Cells Efficacy (%)” value ([3]; Table 2, antagonist mode) was “na (na = not active (i.e. efficacy of <20 and potency of >10,000))” and the “AR Antagonist CV-1 Cells Efficacy (%)” value [3, 6] was “na (na = not active (i.e. efficacy of <20 and potency of >10,000))”. For the same molecule, the IC50 [3, 7] was over 10000 nM.

Molecule `CC1C(=O)C(C)(C)Nc2cc3[nH]c(=O)cc(C(F)(F)F)c3cc21` (racemic) [Compound 418, (R/S)-1,2,3,4-Tetrahydro-6-trifluoromethyl-2,2,4-trimethyl-8-pyridono[5,6-f]-3-quinolinone] has a Ki (human AR; competition with 1 nM 3H-DHT, COS-1 whole cells, three hours at 37° C., read-out: AR Binding Ki) of 1000 nM, an EC50 [3] of over 10000 nM and an IC50 [3] of 200 nM. The “AR Agonist CV-1 Cells Efficacy (%)” value ([3]; Table 2, agonist mode) was “na (na = not active (i.e. efficacy of <20 and potency of >10,000))”, the “AR Antagonist CV-1 Cells Efficacy (%)” value ([3]; Table 2, antagonist mode) was 63% and the “AR Agonist CV-1 Cells Efficacy (%)” value ([3]; agonist mode) was “na (na = not active (i.e. efficacy of <20 and potency of >10,000))”. The EC50 [3, 5] was over 10000 nM.

In the case of `CC1=CC(C)(C)Nc2cc3c(cc21)-c1ccc(F)cc1C3` [Compound 124, 8-Fluoro-1,2-dihydro-2,2,4-trimethylindeno[1,2-g]quinoline], the “steroid receptor selectivity profile” value (PR, AR, ER, GR and MR) is reported as “highly selective PR antagonists”, the EC50 (human PR-B) is reported as 1600 nM and the “PR Agonist CV-1 Cells Efficacy (%)” value (human PR-B; agonist mode, percent maximal response relative to reference agonist progesterone) is reported as 74%. For the same molecule, the “PR Antagonist CV-1 Cells Efficacy (%)” value (human PR-B; antagonist mode, progesterone at its EC50, % maximal inhibition) was 36%, the IC50 (human PR-B; antagonist mode, progesterone at its EC50, IC50) was 10 nM and the Ki [2] was 4 nM.

`CC1=CC(C)(C)Nc2cc3oc(=O)cc(C(F)(F)F)c3cc21` [Compound 238, 1,2-Dihydro-2,2,4-trimethyl-6-trifluoromethyl-8-pyranono[5,6-g]quinoline] gave a Ki (human AR) of 44 nM, an EC50 [3] of 10 nM and an IC50 [3] of over 10000 nM. For the same molecule, the “AR Agonist CV-1 Cells Efficacy (%)” value ([3]; Table 2, agonist mode) was 96%, the “AR Antagonist CV-1 Cells Efficacy (%)” value ([3]; Table 2, antagonist mode) was “na (na = not active (i.e. efficacy of <20 and potency of >10,000))” and the “AR Antagonist CV-1 Cells Efficacy (%)” value [3, 6] was “na (na = not active (i.e. efficacy of <20 and potency of >10,000))”. It also gave an IC50 [3, 7] of over 10000 nM.

`CC1=CC(C)(C)Nc2cc3oc(=O)cc(C(F)(F)C(F)(F)F)c3cc21` [Compound 256, 1,2-Dihydro-2,2,4-trimethyl-6-(1,1,2,2,2-pentafluoroethyl)-8-pyranono[5,6-g]quinoline] was tested, and the Ki (human AR) was 4500 nM, the EC50 [3] was over 10000 nM and the IC50 [3] was 62 nM. For the same molecule, the “AR Agonist CV-1 Cells Efficacy (%)” value ([3]; Table 2, agonist mode) was “na (na = not active (i.e. efficacy of <20 and potency of >10,000))”, the “AR Antagonist CV-1 Cells Efficacy (%)” value ([3]; Table 2, antagonist mode) was 91% and the “AR Agonist CV-1 Cells Efficacy (%)” value ([3]; agonist mode) was “na (na = not active (i.e. efficacy of <20 and potency of >10,000))”. The EC50 ([3]; read-out: AR Agonist CV-1 Cells Potency, Table 2, agonist mode, EC50) was over 10000 nM.

`CC1=CC(C)(C)Nc2ccc3c(c21)/C(=C/c1ccccc1C)Oc1ccc(F)cc1-3` [Compound 374, (Z)-9-Fluoro-1,2-dihydro-2,2,4-trimethyl-5-(2-methylbenzylidene)-5H-chromeno[3,4-f]quinoline] was tested, and the “steroid receptor selectivity profile” value (PR, AR, ER, GR and MR) was “highly selective PR agonists”, the “PR Agonist CV-1 Cells Efficacy (%)” value (human PR-B) was 231% and the “PR Antagonist CV-1 Cells Efficacy (%)” value (human PR-B) was “na (na = not active (i.e. efficacy or <20 and potency of >10,000))”. The EC50 (human PR-B; [4]) was 4 nM, the IC50 (human PR-B) was over 10000 nM and the Ki [2] was 0.5 nM.
